# Test results as given in PubChem BioAssay (NCI).
# Several values for one entry are separate records, joined by “and”; a condition that tells them apart may be missing. Equal entries are not always repeated.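 Step 1: Grow cells in 96-well plates. Step 2: Expose to compound for 48 hours at 5 concentrations. Step 3: Interpolate endpoints linearly; if unreached, use highest concentration. Abbreviation: GI50, concentration required for 50% inhibition of growth. The concentration for full growth arrest is given as TGI.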
# Test system: HCT-15 colon
# Assay: NCI tumour cell line growth inhibition, 48 h
Structure (SMILES),GI50,TGI
COc1ccc2[nH]cc(/C=C(/C)c3ccncc3)c2c1,0.551 µM,18.7 µM and 14 µM
COC(=O)[C@@H](O)[C@](O)(CCC(C)C)C(=O)O[C@@H]1C(OC)=C[C@]23CCCN2CCc2cc4c(cc2[C@H]13)OCO4,–,7.33 µM
CCCCCC1=CC(=O)C1(Cl)Cl,–,32.4 µM
CC(=O)N1C(C(=O)NC2CCCCC2)CSC1c1ccccc1 (centres undefined),–,> 100 µM
CC1(C)O[C@H]2OC(CO[Si](C)(C)C(C)(C)C)C(N=[N+]=[N-])[C@H]2O1 (some centres undefined),–,38.3 µM
O=[N+]([O-])c1ccc(Cl)cc1N/N=C/c1ccnc2ccccc12,–,> 100 µM
CC(C)c1cc2c(cc1S(=O)(=O)O)[C@@]1(C)CCC[C@@](C)(C(=O)O)C1CC2 (some centres undefined),–,> 100 µM
COc1ccc2cc1Oc1ccc(cc1)C[C@H]1c3cc(c(OC)cc3CCN1C)Oc1c(O)c(OC)cc3c1[C@H](C2)N(C)CC3,–,33.5 µM
C/C(=C\CBr)CCC(Br)C(C)(C)Br (centres undefined),–,> 100 µM
Oc1ccc(Cc2cc(Cc3ccc(O)cc3)cc(Cc3ccc(O)cc3)c2)cc1,–,> 50 µM
CC(=O)c1c2c(c3ccccc3c1O)O[C@@H]1OCC[C@H]21,–,> 100 µM
C[C@]12CC[C@H](O)CC1=CC[C@@H]1[C@@H]2CC[C@]2(C)C(=N/N)/C(=N\O)C[C@@H]12,–,> 100 µM
CC(=O)Oc1cccc2c1C(=O)CCCC2,–,> 100 µM
O=C(c1ccccn1)C1(N2CCCCC2)CCCCC1,–,> 100 µM
CCN(CC)C(=S)N/N=C/c1cc([N+](=O)[O-])ccc1O,–,31.6 µM
Cc1ccc(NC(=O)c2ccc(OP(=O)(O)Nc3ccc(C)cc3)cc2)cc1,–,> 100 µM

Structure (SMILES),GI50,TGI
Cc1ccc(NC(=O)CC2Sc3ccccc3NC2=O)cc1C (centres undefined),–,> 100 µM
Cc1ccnc(NS(=O)(=O)c2ccc(N=[N+]=[N-])cc2)n1,–,> 100 µM
Cc1ccccc1C(=N)c1ccccc1Cc1cccc2ccccc12,–,56.1 µM
CCC(=O)NC(Nc1cc(C)on1)(C(F)(F)F)C(F)(F)F,–,> 100 µM
Cc1ccccc1OC(C)C(=O)NN1C(=O)CSC1c1ccccc1 (centres undefined),–,> 100 µM
O=C1C=C[C@@H](COC2OC(CO)C(O)C(O)C2O)O1 (some centres undefined),3.22 µM,21.5 µM and 16.4 µM
CC(C)=CCC[C@@H](C)c1c(O)c(O)c(C)c2nccnc12,–,> 100 µM
O=C(OCc1ccccc1)N1CCNCCN(C(=O)OCc2ccccc2)CCNCC1,–,> 100 µM
COC(=O)C1=C(C(=O)OC)SC(=C2SCSC3=C2SC(C(=O)OC)=C(C(=O)OC)C32SC3=C(CCCC3)S2)S1,–,> 100 µM
COc1nncc2[nH]c(-c3ccccc3)cc12,–,> 100 µM
O=S(=O)(c1ccccc1)c1cccc2c1NCCC2,–,> 100 µM
COP(=O)(OC)C1=c2c(C)noc2=C2C=COC2C1=O (centres undefined),–,> 100 µM
CCOC(=O)N1CCN(Cc2cc(=O)n3ccc(C)cc3n2)CC1,–,> 100 µM
COc1cccc(C2SC(N)=Nc3c2c(C)nn3C(=O)c2ccccc2O)c1 (centres undefined),–,> 10 µM
N#CC(NCc1cccc(CNC(C#N)c2ccccc2)c1)c1ccccc1 (centres undefined),–,66.1 µM

# Test system: UACC-257 melanoma
# Assay: NCI tumour cell line growth inhibition, 48 h
Structure (SMILES),GI50,TGI
COc1ccc2[nH]cc(/C=C(/C)c3ccncc3)c2c1,8.36 µM,32.8 µM and 26.4 µM
COC(=O)[C@@H](O)[C@](O)(CCC(C)C)C(=O)O[C@@H]1C(OC)=C[C@]23CCCN2CCc2cc4c(cc2[C@H]13)OCO4,–,6.06 µM
CCCCCC1=CC(=O)C1(Cl)Cl,–,33.3 µM
CC(=O)N1C(C(=O)NC2CCCCC2)CSC1c1ccccc1 (centres undefined),–,> 100 µM
CC1(C)O[C@H]2OC(CO[Si](C)(C)C(C)(C)C)C(N=[N+]=[N-])[C@H]2O1 (some centres undefined),–,35.5 µM
O=[N+]([O-])c1ccc(Cl)cc1N/N=C/c1ccnc2ccccc12,–,> 100 µM
CC(C)c1cc2c(cc1S(=O)(=O)O)[C@@]1(C)CCC[C@@](C)(C(=O)O)C1CC2 (some centres undefined),–,> 100 µM
COc1ccc2cc1Oc1ccc(cc1)C[C@H]1c3cc(c(OC)cc3CCN1C)Oc1c(O)c(OC)cc3c1[C@H](C2)N(C)CC3,–,30.1 µM
C/C(=C\CBr)CCC(Br)C(C)(C)Br (centres undefined),–,> 100 µM
Oc1ccc(Cc2cc(Cc3ccc(O)cc3)cc(Cc3ccc(O)cc3)c2)cc1,–,> 50 µM
CC(=O)c1c2c(c3ccccc3c1O)O[C@@H]1OCC[C@H]21,–,> 100 µM
C[C@]12CC[C@H](O)CC1=CC[C@@H]1[C@@H]2CC[C@]2(C)C(=N/N)/C(=N\O)C[C@@H]12,–,> 100 µM
CC(=O)Oc1cccc2c1C(=O)CCCC2,–,> 100 µM
O=C(c1ccccn1)C1(N2CCCCC2)CCCCC1,–,> 100 µM
CCN(CC)C(=S)N/N=C/c1cc([N+](=O)[O-])ccc1O,–,32.2 µM
Cc1ccc(NC(=O)c2ccc(OP(=O)(O)Nc3ccc(C)cc3)cc2)cc1,–,> 100 µM

Structure (SMILES),GI50,TGI
Cc1ccc(NC(=O)CC2Sc3ccccc3NC2=O)cc1C (centres undefined),–,> 100 µM
Cc1ccnc(NS(=O)(=O)c2ccc(N=[N+]=[N-])cc2)n1,–,> 100 µM
Cc1ccccc1C(=N)c1ccccc1Cc1cccc2ccccc12,–,> 100 µM
CCC(=O)NC(Nc1cc(C)on1)(C(F)(F)F)C(F)(F)F,–,> 100 µM
Cc1ccccc1OC(C)C(=O)NN1C(=O)CSC1c1ccccc1 (centres undefined),–,> 100 µM
O=C1C=C[C@@H](COC2OC(CO)C(O)C(O)C2O)O1 (some centres undefined),10.2 µM,22.8 µM and 27.7 µM
CC(C)=CCC[C@@H](C)c1c(O)c(O)c(C)c2nccnc12,–,> 100 µM
O=C(OCc1ccccc1)N1CCNCCN(C(=O)OCc2ccccc2)CCNCC1,–,46.3 µM
COC(=O)C1=C(C(=O)OC)SC(=C2SCSC3=C2SC(C(=O)OC)=C(C(=O)OC)C32SC3=C(CCCC3)S2)S1,–,> 100 µM
COc1nncc2[nH]c(-c3ccccc3)cc12,–,> 100 µM
O=S(=O)(c1ccccc1)c1cccc2c1NCCC2,–,76.9 µM
COP(=O)(OC)C1=c2c(C)noc2=C2C=COC2C1=O (centres undefined),–,> 100 µM
CCOC(=O)N1CCN(Cc2cc(=O)n3ccc(C)cc3n2)CC1,–,> 100 µM
COc1cccc(C2SC(N)=Nc3c2c(C)nn3C(=O)c2ccccc2O)c1 (centres undefined),–,> 10 µM
N#CC(NCc1cccc(CNC(C#N)c2ccccc2)c1)c1ccccc1 (centres undefined),–,> 100 µM

# Test system: IGROV1 ovarian
# Assay: NCI tumour cell line growth inhibition, 48 h
row,Structure (SMILES),TGI
1,COc1ccc2[nH]cc(/C=C(/C)c3ccncc3)c2c1,> 100 µM
2,COC(=O)[C@@H](O)[C@](O)(CCC(C)C)C(=O)O[C@@H]1C(OC)=C[C@]23CCCN2CCc2cc4c(cc2[C@H]13)OCO4,20 µM
3,CCCCCC1=CC(=O)C1(Cl)Cl,48 µM
4,CC(=O)N1C(C(=O)NC2CCCCC2)CSC1c1ccccc1 (centres undefined),> 100 µM
5,CC1(C)O[C@H]2OC(CO[Si](C)(C)C(C)(C)C)C(N=[N+]=[N-])[C@H]2O1 (some centres undefined),21.8 µM
6,O=[N+]([O-])c1ccc(Cl)cc1N/N=C/c1ccnc2ccccc12,> 100 µM
7,CC(C)c1cc2c(cc1S(=O)(=O)O)[C@@]1(C)CCC[C@@](C)(C(=O)O)C1CC2 (some centres undefined),> 100 µM
8,COc1ccc2cc1Oc1ccc(cc1)C[C@H]1c3cc(c(OC)cc3CCN1C)Oc1c(O)c(OC)cc3c1[C@H](C2)N(C)CC3,65.8 µM
